ChEMBL document CHEMBL1201862, “PubChem BioAssay data set” (2004)
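48-hour exposure; five concentrations; linearly interpolated endpoints. GI50: concentration for 50% inhibition of growth.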 Activity calls are given as the source filed them. Rule as the data show it: active = GI50 up to about 1.1 µM and inactive = higher.

How the values were obtained:
Experiment in all cases: NCI tumour cell line growth inhibition, 48 h
[1] = system: TK-10
[2] = system: HCC 2998
[3] = system: RPMI-8226
[4] = system: NCI-H460
[5] = system: UO-31
[6] = system: SNB-19
[7] = system: HT-29
[8] = system: HCT-116
[9] = system: OVCAR-8
[10] = system: M19-MEL
[11] = system: K562
[12] = system: SW-620
[13] = system: HOP-92
[14] = system: IGROV-1
[15] = system: UACC-62
[16] = system: CAKI-1
[17] = system: Hs-578T
[18] = system: SR
[19] = system: MDA-MB-231
[20] = system: MDA-N

Measured: GI50

O=C1Nc2ccccc2C1(O)C/C(=N/O)c1ccc2ccccc2c1 (stereo unspecified)
inactive: [1] > 100 µM | [2] > 100 µM | [3] 87.1 µM | [4] > 100 µM | [5] 75.9 µM | [6] > 100 µM | [7] > 100 µM | [8] > 100 µM | [9] > 100 µM | [10] 45.5 µM | [11] 72.6 µM | [12] > 100 µM

COc1cc(C2C(C(=O)O)=C(C)Oc3cc4c(cc32)OCO4)cc(OC)c1OC (stereo unspecified)
inactive: [1] 88.3 µM | [3] > 10 µM | [4] 37.7 µM | [5] 15.3 µM | [6] 40.6 µM | [7] 31.6 µM | [13] > 100 µM | [8] 37.1 µM | [9] 51.2 µM | [14] 58.2 µM | [10] 30.8 µM | [15] 11.7 µM | [11] 19.9 µM | [12] 33.7 µM | [16] 9.04 µM

Cc1cn(CCCCCOC(=O)NC(CCCNC(=N)N)C(=O)O)c(=O)[nH]c1=O (stereo unspecified)
inactive: [1] > 100 µM | [2] 35.7 µM | [3] 11.7 µM | [17] 15.5 µM | [4] 38.2 µM | [5] > 100 µM | [18] 2.57 µM | [19] 69.8 µM | [6] 40.8 µM | [7] 24.2 µM | [13] > 100 µM | [20] 6.9 µM | [8] 37.6 µM | [9] 39.4 µM | [14] 38.1 µM | [15] 26.7 µM | [11] 16.1 µM | [12] 38.7 µM | [16] 37.1 µM

CC(C)C1=C(O)C(=O)C2=C(C1=O)C(O)CC1C(C)(C)CCCC21C (stereo unspecified)
inactive: [1] 14.5 µM | [2] 3.58 µM | [3] 4.65 µM | [17] 3.88 µM | [4] 2.88 µM | [5] 5.09 µM | [18] 4 µM | [19] 2.84 µM | [6] 5.38 µM | [7] 22.1 µM | [13] 3.61 µM | [20] 2 µM | [8] 4.26 µM | [9] 5.36 µM | [14] 15.8 µM | [15] 2.67 µM | [11] 6.56 µM | [12] 3.52 µM | [16] 8.05 µM

O=S1(=O)OCCOS(=O)(=O)C1(F)Cc1ccccc1
inactive: [1] > 100 µM | [2] > 100 µM | [3] > 100 µM | [17] > 100 µM | [4] > 100 µM | [5] > 100 µM | [18] > 100 µM | [19] > 100 µM | [6] > 100 µM | [7] > 100 µM | [13] > 100 µM | [20] > 100 µM | [8] > 100 µM | [9] > 100 µM | [14] > 100 µM | [15] > 100 µM | [11] > 100 µM | [12] > 100 µM | [16] > 100 µM

N=C1/C(=C/c2ccccc2)C(=O)N=C2SC=NN12
inactive: [1] > 100 µM | [2] > 100 µM | [3] > 100 µM | [17] > 100 µM | [4] > 100 µM | [5] > 100 µM | [18] > 100 µM | [19] > 100 µM | [6] > 100 µM | [7] > 100 µM | [13] > 100 µM | [20] > 100 µM | [8] > 100 µM | [9] > 100 µM | [14] > 100 µM | [15] > 100 µM | [11] > 100 µM | [12] > 100 µM | [16] > 100 µM

CC(C)(C)OC(=O)NCCCCC1NC(=O)[C@@H]2Cc3c([nH]c4ccccc34)C(C3CCCCC3)N2C1=O (stereo partly specified)
inactive: [1] 21.8 µM | [2] 13.9 µM | [3] 12.2 µM | [17] 23.6 µM | [4] 29.2 µM | [5] 35.1 µM | [18] 15.2 µM | [19] 31.6 µM | [6] 57.7 µM | [7] 28.1 µM | [13] 26 µM | [20] 25.4 µM | [8] 29.4 µM | [9] 43 µM | [14] 56.5 µM | [15] 32.4 µM | [11] 30.8 µM | [12] 61.8 µM | [16] 56.6 µM

COc1ccc(C2(CC(C)C)CCNC2)cc1OC (stereo unspecified)
inactive: [1] > 100 µM | [2] 12.9 µM | [3] 61.1 µM | [17] > 100 µM | [4] > 100 µM | [5] 50.9 µM | [18] 76.4 µM | [19] > 100 µM | [6] > 100 µM | [7] 39.1 µM | [13] 19.8 µM | [20] > 100 µM | [8] > 100 µM | [9] > 100 µM | [14] 26.5 µM | [15] > 100 µM | [11] > 100 µM | [12] > 100 µM | [16] > 100 µM
